Results from patent US12134610B2, “Somatostatin subtype-2 receptor (SST2R) targeted therapeutics and uses thereof” (priority 2022, dated 2024).
Starred links: 1 amine or outer side, 2 acyl side, 3 side chain; linkers in the order of their positions; H or OH if unused. Non-standard residues stand in square brackets, D forms with d. Residues, ends and D or L forms follow the SMILES beside them. *: point of attachment. PABC(3-O-βDGlc) = O=C(OCc1ccc(N[*:1])c(O[C@@H]2O[C@H](CO)[C@@H](O)[C@H](O)[C@H]2O)c1)[*:2]; X1 = Cc1cc(F)cc(-c2cnc(NCCNC(=O)CCOCCC(=O)*)c(-c3nc4ccc(Cl)cc4[nH]3)c2N2CCC(N)CC2)c1; X3 = Cc1cc(F)cc(-c2cnc(NCCN*)c(-c3nc4ccc(Cl)cc4[nH]3)c2N2CCC(N)CC2)c1; Dolaproine = CO[C@@H]([C@@H]1CCCN1)[C@@H](C)C(=O)O; Dil = CC[C@H](C)[C@H](NC)[C@@H](CC(=O)O)OC; PABC = O=C(OCc1ccc(N[*:1])cc1)[*:2]; Glutaryl = O=C(CCCC(=O)[*:2])[*:1]; X2 = C[C@@H](N*)[C@@H](O)c1ccccc1; Cit = NC(=O)NCCC[C@H](N)C(=O)O; NMeV = CN[C@H](C(=O)O)C(C)C; Sar = CNCC(=O)O

How the values were obtained:
Assay type in all cases: cell-based
[1] = molecular target: T1, human somatostatin receptor subtype 2 (Homo sapiens, UniProt P30874); assay: Functional cAMP assay for SSTR2 agonists (HTRF) in CHO-K1 cells; conditions: CHO-K1 cells stably expressing human SST2, 20 min; read-out: hSST2 cAMP Avg EC50
T1 construct: expressed in transfected cells
T1 sequence (P30874 whole entry): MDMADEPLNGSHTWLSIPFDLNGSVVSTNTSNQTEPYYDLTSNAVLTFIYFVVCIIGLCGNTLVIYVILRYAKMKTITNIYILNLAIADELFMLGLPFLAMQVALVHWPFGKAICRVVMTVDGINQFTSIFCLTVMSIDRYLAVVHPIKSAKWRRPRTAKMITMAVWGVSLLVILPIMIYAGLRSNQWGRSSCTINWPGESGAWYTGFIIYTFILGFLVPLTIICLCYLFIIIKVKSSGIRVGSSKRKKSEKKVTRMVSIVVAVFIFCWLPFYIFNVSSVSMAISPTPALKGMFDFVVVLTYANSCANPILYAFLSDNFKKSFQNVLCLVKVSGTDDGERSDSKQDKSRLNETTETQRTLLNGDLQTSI
Excerpt: General overview: All five SSTR subtypes are Gi coupled G-protein coupled receptors (GPCRs) that lead to decreases in intracellular cyclic AMP (cAMP) when activated by an agonist. Therefore, measurement of intracellular cAMP levels can be used to assess whether compounds of the invention are agonists of SSTR subtypes (John Kelly, Troy Stevens, W. Joseph Thompson, and Roland Seifert, Current Protocols in Pharmacology, 2005, 2.2.1-2.2). One example of an intracellular cAMP assay is described below.
Functional Assay for SSTR2 Agonists
Four days prior to the assay, 2,000 Chinese hamster ovary cells (CHO-K1, ATCC #CCL-61) stably expressing the human somatostatin receptor subtype 2 are plated in each well of a 96-well tissue culture-treated plate in Ham's F12 growth media (ThermoFisher #10-080-CM) supplemented with 10% donor bovine serum (Gemini Bio-Products #100-506), 100 U/mL penicillin; 100 ug/mL streptomycin; 2 mM L-glutamine (Gemini Bio-Products #400-110) and 0.2 mg/mL hygromycin B (GoldBio #31282-04-9). The cells are cultured at 37° C., 5% CO2 and 95% humidity. cAMP is measured with HTRF dynamic cAMP assay (Cisbio, #62AM5PEJ) per manufacturer's instructions. On the day of the assay, the media is aspirated and the cells are treated with 50 μL of stimulation buffer supplemented with 10.2 mM 3-Isobutyl-1-methylxanthine (IBMX, Millipore Sigma #15879) and 1.6 μM NKH477 (Tocris #1603), plus various dilutions of SMDCs of the present invention. The cells are incubated for 20 minutes at 37° C. (the final concentration of the compounds of the invention are typically 0-10,000 nM). The cells are treated with 50 μL of lysis buffer (HRTF cAMP kit, Cisbio) and incubated at room temperature for 30 minutes with rotary shaking at 600 rpm, and then diluted with 150 μL of stimulation buffer and shaken for an additional five minutes at 300 rpm. The lysate is transferred to 384-well plates and incubated for 1-24 hours at room temperature, and cAMP accumulation is detected by d2-labeled cAMP and Anti-cAMP-Cryptate. The time-resolved fluorescent signal is read using a m1000 Pro (Tecan) or CLARIOStar (BMG Labtech) microplate reader, where the samples are excited with light at 340 nm and emission light is measured at 620 nm and 665 nm. The data is expressed as a calculation of the fluorescence ratio (665 nm/620 nm). The intracellular cAMP concentrations are calculated by regression to a standard curve and are plotted vs. the concentration of the compounds of the invention. The EC50 of the compounds are calculated using standard methods. All data manipulations are in GraphPad Prism v9 (GraphPad, San Diego, CA).

SST2 = molecular target: T2, SST2 (Homo sapiens, UniProt P30874); assay: PathHunter CHO-K1 SST2 internalization assay; conditions: PathHunter CHO-K1 SST2, 90 min; read-out: Internalization EC50
T2 construct: host or cells: PathHunter CHO-K1 SST2 cells
T2 sequence (P30874 whole entry): as above
Procedure: SMDCs of the present invention were assessed in vitro using the human PathHunter CHO-K1 SST2 β-arrestin2 and PathHunter CHO-K1 SST2 Internalization Assays from DiscoverX. The CHO-K cells were seeded in 20 μLs of cell culture medium in a white-walled 384 well tissue culture-compatible plate at a density of 2500 cells/well. After a 48-hour incubation, cells were treated with 5 μLs of a 1:3 serially diluted SST2 SMDC prepared at 5× concentration with a final top compound concentration of 10 uM for 90 min at 37 C and in 5% CO2. 11 dilutions were tested as well as one treatment that was compound free. After incubation, the media containing treatments were discarded and 20 μL of a working solution of Beta-Glo from Promega Beta-Glo Assay System was added to each well. The plate was then incubated for 60 min at room temperature in the dark. Luminescence was measured using a Tecan plate reader. IC50 curves were generated using the nonlinear regression analysis (four-parameters) with GraphPad Prism 9. Results were the average of duplicates and are corrected for background.

[2] = system: NCI-H524 (ATCC) human small cell lung cancer cells; conditions: 2 h
Procedure: SMDCs of the present invention were assessed in an in vitro assay evaluating the inhibition of cell proliferation. NCI-H524 (ATCC) human small cell lung cancer cells were plated in 96-well V-bottom plates (Costar) at a concentration of 5,000 cells/well. 24 h later, the cells were treated for 2 h with a SMDC. SMDC starting dose was 1 uM and two-fold serial dilutions were done for a total of 11 points. After 2 h of treatment, cells were spun down, and the drug-containing media was removed, and fresh complete media was added and used to resuspend the cells, which were spun again. After removal of the media, the cells were resuspended in complete medium and incubated for an additional 70 h. Cell proliferation was assessed using the CellTiter Glo Assay according to the standard protocol (Promega). Luminescence was measured using a TECAN plate reader. Percent proliferation inhibition was calculated using the following formula: % inhibition=(Luminescence Control−Luminescence Treatment)/Luminescence Control*100. IC50 curves were generated using the nonlinear regression analysis (four-parameter) with GraphPad Prism 9.

Row | Structure (SMILES) | EC50 [1] [nM] | EC50 (SST2) [nM] | EC50 [2] [nM]
1 | CC[C@H](C)[C@@H]([C@@H](CC(=O)N1CCC[C@H]1[C@H](OC)[C@@H](C)C(=O)N[C@H](C)[C@@H](O)c1ccccc1)OC)N(C)C(=O)[C@@H](NC(=O)[C@H](C(C)C)N(C)C(=O)OCc1ccc(NC(=O)[C@H](CCCNC(N)=O)NC(=O)[C@@H](NC(=O)[C@H](CCC(N)=O)NC(=O)CCOCCC(=O)NCCNc2ncc(-c3cc(C)cc(F)c3)c(N3CCC(N)CC3)c2-c2nc3ccc(Cl)cc3[nH]2)C(C)C)c(O[C@@H]2O[C@H](C(=O)O)[C@@H](O)[C@H](O)[C@H]2O)c1)C(C)C [Compound 151] | 0.28 | 2.2 | 8.9
2 | CCC(C)C(C(CC(=O)N1CCCC1C(OC)C(C)C(=O)NC(C)C(O)c1ccccc1)OC)N(C)C(=O)C(NC(=O)C(C(C)C)N(C)C(=O)OCc1ccc(NC(=O)CNC(=O)[C@H](Cc2ccccc2)NC(=O)CNC(=O)CNC(=O)CCOCCC(=O)NCCNc2ncc(-c3cc(C)cc(F)c3)c(N3CCC(N)CC3)c2-c2nc3ccc(Cl)cc3[nH]2)cc1)C(C)C (stereo in doubt) [Compound 35] | 0.58 | 6.1 | 17.4
3 | CCC(C)C(C(CC(=O)N1CCCC1C(OC)C(C)C(=O)NC(C)C(O)c1ccccc1)OC)N(C)C(=O)C(NC(=O)C(C(C)C)N(C)C(=O)OCc1ccc(NC(=O)[C@H](CCCNC(N)=O)NC(=O)[C@@H](NC(=O)CCOCCC(=O)NCCNc2ncc(-c3cc(C)cc(F)c3)c(N3CCC(N)CC3)c2-c2nc3ccc(C(N)=O)cc3[nH]2)C(C)C)cc1)C(C)C (stereo in doubt) [Compound 28] | 2 | 704 | 1290
4 | CC[C@H](C)[C@@H]([C@@H](CC(=O)N1CCC[C@H]1[C@H](OC)[C@@H](C)C(=O)N[C@H](C)[C@@H](O)c1ccccc1)OC)N(C)C(=O)[C@@H](NC(=O)[C@H](C(C)C)N(C)C(=O)OCc1ccc(NC(=O)[C@H](CCCNC(N)=O)NC(=O)[C@@H](NC(=O)CCCC(=O)N(C)CC(=O)NCCNc2ncc(-c3cc(C)cc(F)c3)c(N3CCC(N)CC3)c2-c2nc3ccc(Cl)cc3[nH]2)C(C)C)cc1)C(C)C [Compound 95] ({X3-Sar-Glutaryl}-V[Cit][PABC][NMeV]V[Dil][Dolaproine]-X2) | 0.26 | 2.2 | 5.1
5 | CC[C@H](C)[C@@H]([C@@H](CC(=O)N1CCC[C@H]1[C@H](OC)[C@@H](C)C(=O)N[C@H](C)[C@@H](O)c1ccccc1)OC)N(C)C(=O)[C@@H](NC(=O)[C@H](C(C)C)N(C)C(=O)OCc1ccc(NC(=O)[C@H](C)NC(=O)[C@@H](NC(=O)CCOCCOCCOCCOCCC(=O)NCCNc2ncc(-c3cc(C)cc(F)c3)c(N3CCC(N)CC3)c2-c2nc3ccc(Cl)cc3[nH]2)C(C)C)c(O[C@@H]2O[C@H](C(=O)O)[C@@H](O)[C@H](O)[C@H]2O)c1)C(C)C [Compound 150] | 0.18 | 5.6 | 9.3
6 | CC[C@H](C)[C@@H]([C@@H](CC(=O)N1CCC[C@H]1[C@H](OC)[C@@H](C)C(=O)N[C@H](C)[C@@H](O)c1ccccc1)OC)N(C)C(=O)[C@@H](NC(=O)[C@H](C(C)C)N(C)C(=O)OCc1ccc(NC(=O)[C@H](CCCNC(N)=O)NC(=O)[C@@H](NCCOCCOCCOCCOCCC(=O)NCCNc2ncc(-c3cc(C)cc(F)c3)c(N3CCC(N)CC3)c2-c2nc3ccc(Cl)cc3[nH]2)C(C)C)cc1)C(C)C [Compound 69] | 0.25 | 7.8 | 14.5
7 | CC[C@H](C)[C@@H]([C@@H](CC(=O)N1CCC[C@H]1[C@H](OC)[C@@H](C)C(=O)N[C@H](C)[C@@H](O)c1ccccc1)OC)N(C)C(=O)[C@@H](NC(=O)[C@H](C(C)C)N(C)C(=O)OCc1ccc(NC(=O)[C@H](CCCNC(N)=O)NC(=O)[C@@H](NC(=O)[C@H](CCC(N)=O)NC(=O)CCOCCC(=O)NCCNc2ncc(-c3cc(C)cc(F)c3)c(N3CCC(N)CC3)c2-c2nc3ccc(Cl)cc3[nH]2)C(C)C)c(O[C@@H]2O[C@H](CO)[C@@H](O)[C@H](O)[C@H]2O)c1)C(C)C [Compound 136] (X1-QV[Cit][PABC(3-O-βDGlc)][NMeV]V[Dil][Dolaproine]-X2) | 0.23 | 6.7 | 5.8
